What was measured:
[1] = system: B cells; experiment: Co-culture of B cells isolated from PBMC with hMSC and ODN, IgM in supernatant by ELISA; format: cell-based; details: screening of 20 types of chemicals treated to human MSC
Procedure: Human mesenchymal stern cells (MSC) were obtained from hone marrow (BM) cells of human tibiae and femurs. BM cells were cultured in α-MEM medium including 10% fetal bovine serum (FBS), 2 mM L-glutamine, and penicillin/streptomycin under a condition of 37° C. and 5% CO2. Non-adherent cells were removed on day 1, and adhered cells were cultured with medium replenishment every 3 days and used between day 17 and day 20.
As substances used for the pretreatment condition for hMSC, PMA (10 ng/mL, 24-hour treatment, Sigma), I3A (10 μg/mL, 24-hour treatment, Sigma), and IFN-γ (10 ng/mL, 7-day treatment, Sigma) were used.
IFN-γ measurement'as performed according to the test method provided by R&D (#DY285-05), and for IgM, the IgM ELISA kit (eBioscience, Vienna, Austria) was used for measurement. […] Finally, the value was measured at 450 nm to 570 nm.
After B cells (1×10^5 cells/well) isolated from peripheral blood mononuclear cells (PBMC) and PMA-treated hMSC (1×10^3 cells/well) were co-cultured for 72 hours with CpG oligodeoxynucleotides (ODN, 5 μg/mL), the level of IgM in the supernatant was measured by ELISA (A in FIG. 1). T cells (1×10^5 cells/well) isolated from PBMC and PMA-treated hMSCs×10^3 cells/well) were co-cultured for 72 hours with phytohemagglutinin (PHA, 5 ug/mL), and the level of IFN-γ in the supernatant was measured by ELISA (B in FIG. 1). […]

[2] = system: MSC; experiment: Chemokines of MSC by RT-PCR and ELISA; format: cell-based, human; details: MSC treated with PMA; mRNA (RT-PCR) and protein (ELISA)
Procedure: Cells were treated with Trypsin-EDTA (Gibco) at […] at a time point when the confluency of 70% to 80% was reached, followed by culturing under a condition of 5% CO2 and 37° C. After 24 hours of material treatment, the cells were recovered, and the total RNA was isolated from the cells using the TRIZOL reagent (invitrogen, MD, USA), and the total RNA was quantified by absorbance measurement at 260 nm.
A total RNA concentration of 0.3 μg was used, and it was synthesized at 42° C. for 1 hour and at 95° C. for 5 minutes. Polymerase chain reaction was performed using 3 μL of synthesized cDNA and 10 pM of a primer. […]
(§1) The expression levels of mRNA for FasL, PD-L1, PD-L2, ICAM1, VCAM1, β-actin, IFN-γ, TNF-α, IL-12, COX-2, iNOS, IDO, TGF-β, CCL2, CCL3, CXCL10, and CXCL12 were analyzed by quantitative real-time PCR (qPCR). The relative mRNA amount of each sample was calculated based on a threshold cycle (Ct) compared to the threshold cycle (Ct) of β-actin, which is a housekeeping gene.
The chemokines of MSC were analyzed by RT-PCR (A in FIG. 2) and ELISA (B in FIG. 2) at mRNA and protein levels, respectively. […] The migration of B cells with respect to MSC was measured using a transwell, MSCs were seeded in the lower well, and B cells were seeded in the upper well. […]

[3] = system: PKC-α and δ; experiment: PKC signaling in MSC by western blot; format: cell-based, human; details: PMA treated to MSC, 24 hours
Procedure: Cells were lysed in ice using a cell lysis buffer (Cell Signaling Technology, Danvers, Mass., USA). Proteins were obtained by centrifugation at 12,000 rpm for 15 minutes at 4° C. The proteins were quantified using the Bradford reagent, and electrophoresis was performed at 75V with 20 μg of the proteins by using an SDS-polyacrylamide gel. After the SDS-polyacrylamide gel was transferred to a PVDF membrane at 95V for 90 minutes, 5% nonfat dry milk was added to TBS (TTBS) including 0.5% Tween 20 and blocked for 1 hour. After blocking, the membrane was placed in 5% BSA/TTBS including a primary antibody and shaken at 4° C. for one day. […] After washing the membrane with TTBS and reacting the membrane with enhanced chemiluminescence (ECL, Amersham Pharmacia Biotech, Piscataway, N.J., USA), the degree of protein expression was measured using a ChemiDoc™ XRS+ machine (Bio-Rad, CA, USA).
PMA was treated to MSC, and after 24 hours, proteins were obtained, and signaling was analyzed through western blot (A in FIG. 4). A PKC inhibitor (Go6983, 1 ug/mL) was pre-treated to MSC for 1 hour, and after PMA was treated, proteins were obtained after 24 hours, and signaling was analyzed through western blot (B in FIG. 4). […] Then, the level of IgM in the supernatant was measured by ELISA (C in FIG. 4). The mRNA levels of the surface molecules of the PMA-treated MSCs were analyzed via RT-PCR (D in FIG. 4). […]

[4] = system: MSC; experiment: Surface molecules of PMA-treated MSC by RT-PCR and FACS; format: cell-based, human; details: PMA treated to MSC, RT-PCR
Procedure: as §1
PMA was treated to MSC, and after 24 hours, proteins were obtained, and signaling was analyzed through western blot (A in FIG. 4). A PKC inhibitor (Go6983, 1 ug/mL) was pre-treated to MSC for 1 hour, and after PMA was treated, proteins were obtained after 24 hours, and signaling was analyzed through western blot (B in FIG. 4). After MSC was pretreated with the PKC inhibitor (Go6983, 1 ug/mL) for 1 hour and PMA was treated, B cells (1×10^5 cells/well) that were isolated from PBMC and PMA-treated MSCs (1×10^3 cells/well) were co-cultured with ODN for 72 hours. Then, the level of IgM in the supernatant was measured by ELISA (C in FIG. 4). The mRNA levels of the surface molecules of the PMA-treated MSCs were analyzed via RT-PCR (D in FIG. 4). The expressions of PD-L1 of the PMA-treated MSC and PD1 of the B cells were analyzed through FACS (E in FIG. 4). After treating the FasL blocking Ab (10 ug/mL) (F) and the PD-L1 blocking Ab (10 ug/mL) (G) to MSCs and adding PMA, MSCs and B cells were cultured with ODN for 72 hours, and then, the IgM level in the supernatant was measured by ELISA. The PMA-treated MSCs were treated with siRNA to confirm […] at the mRNA level via RT-PCR. After the PMA-treated MSCs, in which PD-L1 was knocked down, and B cells were cultured with ODN for 72 hours, the IgM level in the supernatant was measured by ELISA (H in FIG. 4). PMA was treated to the MSCs, and after 24 hours, the total RNA was obtained, and soluble factors were analyzed via RT-PCR (I in FIG. 4).

## CCCCCCCCCCCCCC(=O)O[C@@H]1[C@@H](C)[C@@]2(O)[C@@H](C=C(CO)C[C@]3(O)C(=O)C(C)=C[C@@H]23)[C@@H]2C(C)(C)[C@]12OC(C)=O [PMA, phorbol myristate acetate]
[1]
  human B cell function: inhibits
[2]
  expression of CXCL10 in MSC: increased
[3]
  PKC-α and δ in the cytoplasm of MSC: transferred to the cell membrane
  phosphorylation of ERK in MSC: increased
[4]
  FasL expression in MSC: expressed
  PD-L2 expression in MSC: expressed
[4]; FACS
  PD-L1 expression in MSC: expressed
